SMILES strings stand for the structures. Converted amounts (≈) assume the structure as drawn.

For this assay, the system named is Streptococcus mutans. Description: Minimal Inhibitory Concentration ofcompound against Streptococcus mutans. The class given is functional.

As a reminder, the MIC is the lowest concentration found to suppress growth. A low value points to a more susceptible organism. With `CCCC[B-]12OCC[NH+]1CCO2` (stereo not drawn), the MIC stood at 6.75 mM (≈ 1150 µg/mL).

Compound `c1ccc([B-]23OCC[NH+]2CCO3)cc1` (stereo not drawn) showed an MIC of 6.75 mM (≈ 1290 µg/mL). The compound `CCCCB1NC(C)C(c2ccccc2)O1` (stereo not drawn) yielded an MIC of 2.83 mM (≈ 614 µg/mL).

Regarding `CC1NB(c2ccccc2)OC1c1ccccc1` (stereo not drawn), the MIC was determined as 1.33 mM (≈ 315 µg/mL). The figure for `CCCCB1OC(c2ccccc2)C(C)N1C` (stereo not drawn) is 0.53 mM (≈ 123 µg/mL). On to `CC1(C)COB(c2ccccc2)N1`, for which the MIC came out at 6 mM (≈ 1050 µg/mL). `CCCCB1NC(C)(C)CO1` had a minimum inhibitory concentration (MIC) of 3.38 mM (≈ 524 µg/mL). The figure for `CC1C(c2ccccc2)OB(c2ccccc2)N1C` (stereo not drawn) is 1.55 mM (≈ 389 µg/mL).

The values are drawn from ChEMBL document CHEMBL1148300, “Synthesis and evaluation of oxazaborolidines for antibacterial activity against Streptococcus mutans” (2004).
